Two compounds from ChEMBL document CHEMBL1158385, “New and selective ryanodine receptor activators for insect control” (Bioorg Med Chem, 2009) can be followed below.

Data set [1] in a line: Solubility in water at 20 degC. The class given is physicochemical.
A further data set deals with Heliothis virescens. Nature of the data set: Insecticidal activity against Heliothis virescens larvae. The class given is functional, organism-based.
The nature of data set [2]: Activation of ryanodine receptor in Periplaneta americana neurons.
A further data set concerns PC-12. As to the kind of experiment: Selectivity for Drosophila melanogaster ryanodine receptor over ryanodine receptor 2 in rat PC12 cells. The class given is cell-based.
Data set [3] in a line: Activation of Heliothis virescens recombinant ryanodine receptor.
Data set [4] addresses Ryanodine receptor 2 (Homo sapiens, UniProt Q92736). As to the kind of experiment: Activation of ryanodine receptor in human IMR32 cells assessed as induction of calcium mobilization. Format: cell-based, IMR-32. Background: Calcium flux is commonly read through the fluorescence of an indicator in the cells.
The test system of the next data set is Spodoptera frugiperda. As to the kind of experiment: Insecticidal activity against Spodoptera frugiperda larvae. Format: functional, organism-based.
The test system of the next data set is C2C12. Nature of the data set: Selectivity for Heliothis virescens recombinant ryanodine receptor over ryanodine receptor 1 in mouse C2C12 cells. Format: cell-based.
The target in a further data set is Ryanodine receptor 1 (Mus musculus, UniProt E9PZQ0). Nature of the data set: Activation of ryanodine receptor 1 in mouse C2C12 cells assessed as induction of calcium mobilization. The class given is cell-based.
The test system of another data set is Plutella xylostella. Nature of the data set: Insecticidal activity against Plutella xylostella larvae. The class given is functional, organism-based.
Data set [5] can be described thus: Octanol-water partition coefficient, log P at 20 degC. The class given is physicochemical.
Data set [6] addresses Ryanodine receptor 2 (Rattus norvegicus, UniProt B0LPN4). Nature of the data set: Activation of ryanodine receptor 2 in rat PC12 cells assessed as induction of calcium mobilization. Format: cell-based, PC-12.
The nature of data set [7]: Activation of ryanodine receptor-mediated calcium release in Heliothis virescens neurons.
A further data set can be described thus: physchem. The note with it: octanol/water.

Structures are written as SMILES. ≈ marks a conversion by molar mass, not a printed value.

Ryanodine receptor 1, sequence (E9PZQ0 whole entry): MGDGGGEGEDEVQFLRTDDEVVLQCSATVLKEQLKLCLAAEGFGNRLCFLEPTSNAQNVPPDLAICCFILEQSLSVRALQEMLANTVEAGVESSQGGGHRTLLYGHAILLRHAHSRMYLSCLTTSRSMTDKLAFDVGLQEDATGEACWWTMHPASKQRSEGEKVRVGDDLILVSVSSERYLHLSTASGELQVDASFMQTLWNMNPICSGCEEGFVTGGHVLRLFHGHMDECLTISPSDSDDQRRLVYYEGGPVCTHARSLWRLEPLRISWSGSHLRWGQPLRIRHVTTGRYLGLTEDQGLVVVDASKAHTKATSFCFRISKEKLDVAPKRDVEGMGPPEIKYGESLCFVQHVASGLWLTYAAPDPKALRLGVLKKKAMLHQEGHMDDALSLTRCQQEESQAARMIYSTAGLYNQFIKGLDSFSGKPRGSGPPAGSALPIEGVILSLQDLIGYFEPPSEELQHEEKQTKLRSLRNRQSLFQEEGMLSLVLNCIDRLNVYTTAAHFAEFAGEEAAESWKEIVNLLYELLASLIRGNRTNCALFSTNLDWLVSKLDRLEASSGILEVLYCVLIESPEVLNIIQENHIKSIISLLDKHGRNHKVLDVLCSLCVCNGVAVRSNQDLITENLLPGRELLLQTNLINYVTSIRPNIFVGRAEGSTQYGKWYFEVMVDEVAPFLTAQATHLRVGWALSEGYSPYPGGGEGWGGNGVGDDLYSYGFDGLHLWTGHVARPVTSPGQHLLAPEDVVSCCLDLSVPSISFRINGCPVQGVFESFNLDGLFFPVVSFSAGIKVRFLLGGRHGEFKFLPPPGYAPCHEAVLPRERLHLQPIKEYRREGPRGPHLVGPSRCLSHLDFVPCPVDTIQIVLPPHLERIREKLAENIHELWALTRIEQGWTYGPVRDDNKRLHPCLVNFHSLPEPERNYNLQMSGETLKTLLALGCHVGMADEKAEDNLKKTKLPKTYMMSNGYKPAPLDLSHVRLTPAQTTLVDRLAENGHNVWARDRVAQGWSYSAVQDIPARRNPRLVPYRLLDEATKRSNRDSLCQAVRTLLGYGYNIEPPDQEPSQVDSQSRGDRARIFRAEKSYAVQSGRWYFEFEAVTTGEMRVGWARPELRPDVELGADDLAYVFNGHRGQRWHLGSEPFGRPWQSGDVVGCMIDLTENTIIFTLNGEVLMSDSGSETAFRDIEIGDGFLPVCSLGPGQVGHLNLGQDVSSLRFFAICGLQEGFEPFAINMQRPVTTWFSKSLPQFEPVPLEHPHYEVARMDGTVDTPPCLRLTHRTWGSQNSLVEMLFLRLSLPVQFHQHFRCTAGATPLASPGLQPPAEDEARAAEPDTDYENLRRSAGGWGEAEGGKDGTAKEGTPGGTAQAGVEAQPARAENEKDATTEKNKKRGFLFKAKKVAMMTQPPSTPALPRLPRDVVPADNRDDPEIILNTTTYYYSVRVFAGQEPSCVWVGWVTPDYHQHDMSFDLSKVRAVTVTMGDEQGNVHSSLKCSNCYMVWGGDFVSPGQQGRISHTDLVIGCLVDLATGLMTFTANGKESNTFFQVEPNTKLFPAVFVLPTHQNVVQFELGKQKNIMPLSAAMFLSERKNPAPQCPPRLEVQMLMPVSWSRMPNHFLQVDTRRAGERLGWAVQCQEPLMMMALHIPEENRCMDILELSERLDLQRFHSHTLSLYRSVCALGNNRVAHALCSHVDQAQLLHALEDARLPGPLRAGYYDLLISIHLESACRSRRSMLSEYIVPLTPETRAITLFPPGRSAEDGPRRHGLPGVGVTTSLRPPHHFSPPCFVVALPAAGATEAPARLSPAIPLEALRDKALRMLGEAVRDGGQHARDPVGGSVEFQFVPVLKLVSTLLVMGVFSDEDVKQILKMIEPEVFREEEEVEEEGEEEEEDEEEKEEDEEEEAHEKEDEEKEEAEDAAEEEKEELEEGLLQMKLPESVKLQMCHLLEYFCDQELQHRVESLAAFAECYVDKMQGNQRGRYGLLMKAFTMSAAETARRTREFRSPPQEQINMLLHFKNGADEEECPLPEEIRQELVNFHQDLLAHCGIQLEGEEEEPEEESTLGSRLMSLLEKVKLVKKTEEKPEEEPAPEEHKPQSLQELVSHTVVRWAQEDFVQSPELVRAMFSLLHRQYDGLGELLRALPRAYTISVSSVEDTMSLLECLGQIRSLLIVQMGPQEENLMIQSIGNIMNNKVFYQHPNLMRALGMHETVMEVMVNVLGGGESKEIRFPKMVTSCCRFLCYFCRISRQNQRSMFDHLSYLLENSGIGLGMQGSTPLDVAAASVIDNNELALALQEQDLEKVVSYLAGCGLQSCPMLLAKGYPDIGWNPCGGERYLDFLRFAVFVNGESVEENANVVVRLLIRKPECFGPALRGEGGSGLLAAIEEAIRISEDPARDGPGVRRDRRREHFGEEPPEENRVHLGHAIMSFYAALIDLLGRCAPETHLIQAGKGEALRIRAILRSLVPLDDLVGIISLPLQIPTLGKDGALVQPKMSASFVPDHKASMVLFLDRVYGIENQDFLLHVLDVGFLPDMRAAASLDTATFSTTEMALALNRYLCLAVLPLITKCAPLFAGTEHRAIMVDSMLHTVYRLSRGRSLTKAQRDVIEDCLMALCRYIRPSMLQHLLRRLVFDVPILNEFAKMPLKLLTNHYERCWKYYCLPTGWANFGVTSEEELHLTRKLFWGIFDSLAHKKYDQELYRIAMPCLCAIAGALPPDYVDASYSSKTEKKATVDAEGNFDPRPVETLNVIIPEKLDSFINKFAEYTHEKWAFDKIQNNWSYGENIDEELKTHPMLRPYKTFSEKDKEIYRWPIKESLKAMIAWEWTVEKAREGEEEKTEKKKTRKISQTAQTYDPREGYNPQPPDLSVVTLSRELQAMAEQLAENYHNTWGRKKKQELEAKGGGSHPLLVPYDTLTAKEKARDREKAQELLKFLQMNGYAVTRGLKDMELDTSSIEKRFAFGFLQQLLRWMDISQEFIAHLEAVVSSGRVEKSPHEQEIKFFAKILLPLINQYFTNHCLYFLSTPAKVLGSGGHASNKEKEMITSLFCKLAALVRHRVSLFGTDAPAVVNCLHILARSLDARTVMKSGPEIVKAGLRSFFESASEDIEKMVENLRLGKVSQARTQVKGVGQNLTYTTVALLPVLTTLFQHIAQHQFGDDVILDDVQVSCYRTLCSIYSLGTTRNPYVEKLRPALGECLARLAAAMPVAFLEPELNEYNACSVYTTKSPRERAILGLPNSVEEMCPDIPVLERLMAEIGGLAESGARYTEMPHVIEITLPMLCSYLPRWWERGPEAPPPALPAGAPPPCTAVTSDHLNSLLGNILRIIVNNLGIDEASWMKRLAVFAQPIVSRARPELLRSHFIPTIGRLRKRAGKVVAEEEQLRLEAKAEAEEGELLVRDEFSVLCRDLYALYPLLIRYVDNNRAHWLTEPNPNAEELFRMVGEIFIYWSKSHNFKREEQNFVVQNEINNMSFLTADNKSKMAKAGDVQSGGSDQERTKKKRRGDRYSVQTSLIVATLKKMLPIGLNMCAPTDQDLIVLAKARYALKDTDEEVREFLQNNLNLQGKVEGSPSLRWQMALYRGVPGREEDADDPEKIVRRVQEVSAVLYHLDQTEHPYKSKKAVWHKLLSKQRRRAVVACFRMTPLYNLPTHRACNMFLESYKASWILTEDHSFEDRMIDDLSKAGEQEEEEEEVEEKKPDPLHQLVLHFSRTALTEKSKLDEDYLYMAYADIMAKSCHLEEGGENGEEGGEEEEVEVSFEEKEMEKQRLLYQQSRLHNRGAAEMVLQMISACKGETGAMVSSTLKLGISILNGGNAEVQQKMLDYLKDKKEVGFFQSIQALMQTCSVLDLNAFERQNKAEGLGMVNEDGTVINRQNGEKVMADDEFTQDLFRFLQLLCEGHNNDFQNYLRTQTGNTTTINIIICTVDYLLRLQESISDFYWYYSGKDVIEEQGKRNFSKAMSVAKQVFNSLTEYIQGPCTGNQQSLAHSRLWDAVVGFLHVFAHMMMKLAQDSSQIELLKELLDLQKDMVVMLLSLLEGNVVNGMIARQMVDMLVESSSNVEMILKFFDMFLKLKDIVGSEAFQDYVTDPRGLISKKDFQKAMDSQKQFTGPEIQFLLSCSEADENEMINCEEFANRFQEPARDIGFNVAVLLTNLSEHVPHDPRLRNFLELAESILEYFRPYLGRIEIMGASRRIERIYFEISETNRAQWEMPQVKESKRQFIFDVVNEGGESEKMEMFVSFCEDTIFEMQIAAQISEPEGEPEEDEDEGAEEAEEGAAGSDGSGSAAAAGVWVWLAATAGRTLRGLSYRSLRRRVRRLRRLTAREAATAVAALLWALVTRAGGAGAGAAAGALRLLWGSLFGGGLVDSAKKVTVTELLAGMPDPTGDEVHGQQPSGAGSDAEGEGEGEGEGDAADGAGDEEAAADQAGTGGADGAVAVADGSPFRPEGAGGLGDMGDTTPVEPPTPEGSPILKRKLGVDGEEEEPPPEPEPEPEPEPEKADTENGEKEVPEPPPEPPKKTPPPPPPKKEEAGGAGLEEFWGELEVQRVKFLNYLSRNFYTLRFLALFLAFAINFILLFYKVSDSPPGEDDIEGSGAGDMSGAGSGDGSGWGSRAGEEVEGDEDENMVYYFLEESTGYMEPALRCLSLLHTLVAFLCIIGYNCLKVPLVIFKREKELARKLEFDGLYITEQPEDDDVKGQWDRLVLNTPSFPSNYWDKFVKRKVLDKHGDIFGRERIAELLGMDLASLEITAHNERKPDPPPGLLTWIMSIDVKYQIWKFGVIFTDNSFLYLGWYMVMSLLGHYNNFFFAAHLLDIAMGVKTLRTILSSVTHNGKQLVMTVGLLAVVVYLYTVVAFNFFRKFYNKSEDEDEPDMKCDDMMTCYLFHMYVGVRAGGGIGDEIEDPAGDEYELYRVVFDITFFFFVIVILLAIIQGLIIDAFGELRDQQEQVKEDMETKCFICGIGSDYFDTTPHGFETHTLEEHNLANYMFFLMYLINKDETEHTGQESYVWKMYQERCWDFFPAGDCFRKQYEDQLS
Description for physchem: Octanol-water partition coefficient, log P at 24.9 degC

Usually solubility stands for the concentration that dissolves in the medium under given conditions. A higher solubility goes with a readily soluble substance. Usually logP stands for a log measure of how a compound divides between an organic and an aqueous phase. The compound `CNC(=O)c1cc(Cl)cc(C)c1NC(=O)c1cc(Br)nn1-c1ncccc1Cl` [CHLORANTRANILIPROLE] gave a solubility in data set [1] of 1 µg/mL (≈ 2.07 µM). The EC50 was 0.05 ppm in the data set on Heliothis virescens; 40 nM in data set [2]; 40 nM in data set [3]; more than 100000 nM at Ryanodine receptor 2 [4]; 0.02 ppm in the data set on Spodoptera frugiperda; 14000 nM on Ryanodine receptor 1. In addition, the results for the EC50 with Plutella xylostella and at Ryanodine receptor 2 [6] were 0.01 ppm and more than 100000 nM, respectively. Besides, the Selectivity ratio in the data set with PC-12 was 300; in the data set on C2C12 it was more than 2000. In data set [5], this compound yielded a logP of 2.86.
On to `Cc1cc(C(F)(C(F)(F)F)C(F)(F)F)ccc1NC(=O)c1cccc(I)c1C(=O)NC(C)(C)CS(C)(=O)=O` [FLUBENDIAMIDE], for which, in [1], the solubility amounted to 0.03 µg/mL (≈ 0.044 µM). The EC50 in data set [7] was found to be 690 nM. For the same compound, the logP in the data set “physchem” stood at 4.2.
